Data on five molecules can be found in ChEMBL document CHEMBL1143637, “Solid-phase binding assays of peptides using EGFP-Src SH2 domain fusion protein and biotinylated Src SH2 domain” (Bioorg Med Chem Lett, 2005).

The target of the experiment is Proto-oncogene tyrosine-protein kinase Src (Homo sapiens, UniProt P12931). The experiment is described as follows: Inhibitory concentration against Src protein tyrosine kinase SH2 domain.
Chain of Proto-oncogene tyrosine-protein kinase Src (P12931 2-536 limits assumed): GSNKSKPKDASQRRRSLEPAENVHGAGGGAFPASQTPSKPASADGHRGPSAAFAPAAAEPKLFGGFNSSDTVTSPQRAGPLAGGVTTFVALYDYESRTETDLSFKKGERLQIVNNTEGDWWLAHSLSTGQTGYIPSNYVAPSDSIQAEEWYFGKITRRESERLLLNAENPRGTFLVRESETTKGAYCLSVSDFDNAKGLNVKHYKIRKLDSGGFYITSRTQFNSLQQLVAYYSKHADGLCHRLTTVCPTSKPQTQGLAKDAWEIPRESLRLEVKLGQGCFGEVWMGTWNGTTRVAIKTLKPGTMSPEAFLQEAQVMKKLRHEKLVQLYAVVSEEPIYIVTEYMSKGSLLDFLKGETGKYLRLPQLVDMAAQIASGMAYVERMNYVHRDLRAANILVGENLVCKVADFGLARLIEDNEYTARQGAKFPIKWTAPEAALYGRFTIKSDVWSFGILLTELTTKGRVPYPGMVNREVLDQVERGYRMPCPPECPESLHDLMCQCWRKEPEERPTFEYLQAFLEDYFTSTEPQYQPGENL

As a reminder, the IC50 is the concentration that gives 50% inhibition. `CC[C@H](C)[C@H](N)C(=O)N[C@@H](CCC(=O)O)C(=O)N[C@@H](CCC(=O)O)C(=O)N[C@@H](Cc1ccc(O)cc1)C(=O)O` displayed an IC50 of over 100 µM. For `CC[C@H](C)[C@H](NC(=O)[C@H](CCC(=O)O)NC(=O)[C@H](CCC(=O)O)NC(=O)[C@@H](N)Cc1ccccc1)C(=O)O`, the IC50 was over 100 µM.

The molecule `CC[C@H](C)[C@H](N)C(=O)N[C@@H](CCC(=O)O)C(=O)N[C@@H](CCC(=O)O)C(=O)N[C@@H](Cc1ccccc1)C(=O)O` yielded an IC50 of over 100 µM. The value for `CC[C@H](C)[C@H](NC(=O)[C@H](CCC(=O)O)NC(=O)[C@H](CCC(=O)O)NC(=O)[C@@H](N)Cc1ccc(O)cc1)C(=O)O` was over 100 µM.

For the molecule `CC[C@H](C)[C@H](N)C(=O)N[C@@H](CCC(=O)O)C(=O)N[C@@H](CCC(=O)O)C(=O)N[C@@H](Cc1ccc(OP(=O)(O)O)cc1)C(=O)O`, the half-inhibitory concentration (IC50) was over 100 µM.
